Test results: patent publication US9850216B2 (H. LEE MOFFITT CANCER CENTER AND RESEARCH INSTITUTE, INC., priority 2013, dated 2017)
Several values for one entry are separate records, joined by “and”; a condition that tells them apart may be missing. Equal values may be shown once. Where a name gives a salt, the structure may show the parent alone. Read-outs that look alike come from different tables or passages of the source.

Columns and labels:
ACK1 [1] = biological target: T1, ACK1 (Homo sapiens, UniProt Q07912); assay: ACK1 ELISA: phosphorylation of AKT-derived peptide; type: biochemical
T1 sequence (Q07912 whole entry): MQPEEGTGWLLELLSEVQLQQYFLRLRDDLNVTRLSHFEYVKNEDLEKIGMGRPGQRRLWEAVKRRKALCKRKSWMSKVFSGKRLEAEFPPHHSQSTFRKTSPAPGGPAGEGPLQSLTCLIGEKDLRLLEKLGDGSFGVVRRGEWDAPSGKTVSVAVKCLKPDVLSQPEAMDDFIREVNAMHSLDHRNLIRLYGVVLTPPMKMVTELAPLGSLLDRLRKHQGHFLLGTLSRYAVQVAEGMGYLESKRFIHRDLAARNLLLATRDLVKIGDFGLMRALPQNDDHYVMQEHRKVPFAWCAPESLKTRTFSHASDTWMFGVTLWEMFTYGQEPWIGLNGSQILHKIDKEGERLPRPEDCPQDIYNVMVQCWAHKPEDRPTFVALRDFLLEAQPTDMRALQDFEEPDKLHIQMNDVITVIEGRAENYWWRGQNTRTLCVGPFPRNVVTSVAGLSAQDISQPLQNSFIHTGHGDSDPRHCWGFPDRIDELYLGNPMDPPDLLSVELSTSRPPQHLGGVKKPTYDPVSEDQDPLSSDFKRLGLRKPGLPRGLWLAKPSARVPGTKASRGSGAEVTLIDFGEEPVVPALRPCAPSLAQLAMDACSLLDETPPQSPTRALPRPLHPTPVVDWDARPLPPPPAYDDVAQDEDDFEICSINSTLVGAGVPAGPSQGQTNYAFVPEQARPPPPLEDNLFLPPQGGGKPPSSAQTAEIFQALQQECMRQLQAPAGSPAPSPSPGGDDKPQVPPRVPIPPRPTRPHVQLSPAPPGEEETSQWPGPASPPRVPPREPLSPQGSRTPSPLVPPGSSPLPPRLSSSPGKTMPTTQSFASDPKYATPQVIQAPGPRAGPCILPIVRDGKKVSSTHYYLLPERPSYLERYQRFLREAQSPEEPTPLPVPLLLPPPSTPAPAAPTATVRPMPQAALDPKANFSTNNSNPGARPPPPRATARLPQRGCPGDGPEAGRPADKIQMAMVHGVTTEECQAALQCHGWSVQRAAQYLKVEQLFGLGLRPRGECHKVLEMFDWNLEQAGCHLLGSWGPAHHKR

LAPC4 cells = assay: Cell growth, LAPC4; type: cell-based, human
Description: Selected compounds from the library 9 were chosen to evaluate the effects of ACK1 inhibition in LAPC4 human prostate cancer cells with inhibition of cell growth as a read out. […] Based on the findings from cell culture data, enantiomers of 9b were synthesized to understand the ACK1 inhibitory activities of individual stereoisomers. […] The synthesis of (R)-9b and (S)-9b are shown in the Scheme 4 and other examples of enantiomerically pure compounds (not reported here) were also synthesized using the protocols in the Scheme 4.
Three distinct human prostate cancer derived cell lines, LNCaP, LAPC4 and VCaP were either DMSO treated or treated with 1, 2.5, 5, 7.5 and 10 μM of inhibitors, AIM-100, (R)-9b and (S)-9b for 36 hrs and the number of viable cells were counted by trypan blue exclusion assay.

ACK1 [2] = biological target: T1, ACK1; assay: 32P Hotspot assay (Reaction Biology), ACK1 IC50; type: biochemical
Method: 8 compounds were tested against […], ACK1, Src and ALK in various combinations. […] Reactions were carried out at 10 μM ATP.

AR [3] = assay: AR mRNA by real time PCR in androgen-deprived prostate cancer cells; type: cell-based, human; conditions: overnight treatment (FIG. 3a, b)
Description: Total RNA was isolated followed by qPCR with AR primers. VCaP, *p=0.022; LNCaP, *p=0.042, **p=0.047. […] Total RNA was isolated followed by qPCR with PSA primers.

PSA = PSA mRNA by real time PCR in androgen-deprived prostate cancer cells; type: cell-based, human; conditions: overnight treatment (FIG. 3c, d)
Description: Total RNA was isolated followed by qPCR with AR primers. […] Total RNA was isolated followed by qPCR with PSA primers.

pY88-H4 = assay: Endogenous H4 Y88-phosphorylation in LNCaP cells; type: cell-based, human; conditions: 16 hrs (FIG. 5b)
Method: In FIG. 5(a), equimolar amounts of purified ACK1 and H4 proteins were incubated in the presence of DZ1-067 (100 nM) and reaction subjected to immunoblotting with pY88-H4 antibodies. […] The nuclear lysates were immunoprecipitated with pY88-H4 antibodies followed by immunoblotting with H4. Lower panel is input lysate.

[4] = metastatic CRPC; literature; cited from earlier work
AR [5] = assay: AR protein levels in androgen-deprived prostate cancer cells, immunoblotting; type: cell-based, human; conditions: immunoblotting (FIG. 2)
Method: Transcriptional regulation of the AR gene itself is a paradigm that merits thorough investigation. […] Whether AR utilizes ACK1 to facilitate its transcriptional co-activator function is not known. […] Cells were also treated with ACK1-specific small molecule inhibitors, DZ1-067 or AIM-100.

ACK1 [6] = biological target: T1, ACK1; assay: EGF-induced ACK1 autophosphorylation (Tyr284) in LAPC4 cells, immunoblotting; type: cell-based; set-up: endogenous in cells; host or cells: LAPC4; conditions: pretreated with compound, 5 μM (FIG. 8(a))
Method: Inhibition of: LNCaP (FIG. 8(b)); LAPC4 (FIG. 8(c)), and VCaP (FIG. 8(d)) cell growth by AIM-100, (R)-9b, and (S)-9b. Inhibition of ACK1 autophosphorylation in LAPC4 cells treated 5 μM with (R)-9b and (S)-9b (FIG. 8(a)).
ACK1 is a tyrosine kinase that auto-phosphorylates at Tyr284, which is indicative of its kinase activation. To determine inhibitory potential of the compounds from library 9, prostate cancer derived cell line LAPC4 was treated with either EGF ligand alone or added to cells pretreated with the compounds, and equal amounts of cell lysates were subjected to immunoblotting. EGF (epidermal growth factor) ligand causes rapid activation of EGFR (epidermal growth factor receptor), which in turn lead to activation of the ACK1 kinase (FIG. 8(a), lane 2, top panel). […] Actin was used as control, which indicates equal loading of cell lysates (FIG. 8(a), lower panel).

[7] = 10 μM, Table 2, library 9, read-out: % Inhibition @ 10 μM (ELISA)
[8] = 10 μM, Table 1, replicate values listed
[9] = Table 1, nM, (RB) = Reaction Biology, replicates listed, read-out: IC50
[10] = 10 μM, Table 1, replicate values listed, read-out: % Inhibition at 10 μM (ELISA)
[11] = Table 1, unit inferred, (RB) = Reaction Biology, replicates listed, read-out: IC50
[12] = 32P hotspot / enzymatic assay, read-out: ACK1 IC50
[13] = Table 4, 10-dose, 10 μM ATP, read-out: Compound IC50 (M), ACK1
[14] = Table 3, 10-dose, 3-fold dilution from 10 μM, 10 μM ATP, read-out: Compound IC50* (M): ACK1

O=C(Nc1c(F)cccc1Cl)c1cnc(Nc2ccc(N3CCNCC3)cc2)nc1NCC1CCCO1 (centres unmarked) [Compound 9m]
inhibition at 10 µM (ACK1 [1]; read-out: % Inhibition @ 10 μM (ELISA), 10 μM, Table 2, library 9): 89.5 ± 2.1%
cellular potency, ACK1 inhibition in LAPC4 cells with cell growth as read out (LAPC4 cells): did not display the expected cellular potency

O=C(Nc1c(F)cccc1Cl)c1cnc(Nc2ccc(N3CCOCC3)cc2)nc1NCC1CCCO1 (centres unmarked) [Compound 9n]
inhibition at 10 µM (ACK1 [1]; [7]): 82 ± 7.7%
IC50 (ACK1 [2]; Table 2, read-out: IC50 (32P Hotspot assay)): 47.7 nM
cellular potency, ACK1 inhibition in LAPC4 cells with cell growth as read out (LAPC4 cells): did not display the expected cellular potency

CNC(=O)c1ccc(N2C(=S)N(c3ccc(C#N)c(C(F)(F)F)c3)C(=O)C2(C)C)cc1F [Enzalutamide]
AR mRNA levels (AR [3]): no significant change
PSA mRNA levels (PSA): significantly suppressed PSA mRNA levels
endogenous pY88-phosphorylation of H4 in LNCaP cells (pY88-H4): unaffected
CRPC patients in whom effective [4]: 12 out of 30
overall survival advantage [4]: 4-6 months

CN1CCN(c2ccc(Nc3ncc(Cl)c(NCC4CCCO4)n3)cc2)CC1 (centres unmarked) [Compound 9b]
inhibition at 10 µM (ACK1 [1]; [7]): 90.5 ± 0.7%
cellular potency, ACK1 inhibition in LAPC4 cells with cell growth as read out (LAPC4 cells): promising ACK1 inhibitory activities in cellular assays

CCCS(=O)(=O)Nc1ccc(F)c(C(=O)c2c[nH]c3ncc(-c4ccc(Cl)cc4)cc23)c1F [PLX4032]
AR protein levels (AR [5]): little effect on AR expression
AR mRNA levels (AR [3]): no significant change

Cc1cc(Nc2ncc(Br)c(NCC3CCCO3)n2)ccc1O.Cl (centres unmarked) [SK1-040, 4-(5-bromo-4-((tetrahydrofuran-2-yl)methylamino)pyrimidin-2-ylamino)-2-methylphenol]
% Inhibition at 10 μM (ELISA) (ACK1 [1]; [8]): 90% and 61% and 56% and 57%
IC50 (ACK1 [2]; [9]): 99.5 nM

Cl.Oc1ccc(Nc2ncc(Br)c(NCC3CCCO3)n2)cc1F (centres unmarked) [SK1-044, 4-(5-bromo-4-((tetrahydrofuran-2-yl)methylamino)pyrimidin-2-ylamino)-2-fluorophenol]
% Inhibition at 10 μM (ELISA) (ACK1 [1]; [8]): 89% and 63% and 28% and 38%
IC50 (ACK1 [2]; [9]): 299 nM

C[C@]12CCC(=O)C[C@@H]1CC[C@@H]1[C@@H]2CC[C@]2(C)[C@@H](O)CC[C@@H]12 [DHT]
AR protein levels (AR [5]): increased AR levels
AR mRNA levels (AR [3]): no significant change
endogenous pY88-phosphorylation of H4 in LNCaP cells (pY88-H4): unaffected

O=C(O)C1CCN(c2ccc(Nc3ncc(Cl)c(NC[C@@H]4CCCO4)n3)cc2)CC1 [DZ1-082, (S)-1-(4-(5-chloro-4-((tetrahydrofuran-2-yl)methylamino)pyrimidin-2-ylamino)phenyl)piperidine-4-carboxylic acid]
% Inhibition at 10 μM (ELISA) (ACK1 [1]; [8]): 94%
inhibition at 10 µM (ACK1 [1]; [10]): 92%
IC50 (ACK1 [2]; [11]): 54.7 nM

COc1cc(N2CCC(N3CCN(C)CC3)CC2)ccc1Nc1ncc(Cl)c(Nc2ccccc2S(=O)(=O)C(C)C)n1 [TAE684]
ACK1 activation (autophosphorylation) in EGF-treated LAPC4 cells (ACK1 [6]): significant reduction in ACK1 activation

O=C(O)C1CCN(c2ccc(Nc3ncc(Cl)c(NCC4CCCO4)n3)cc2)CC1 (centres unmarked) [Compound 9e]
inhibition at 10 µM (ACK1 [1]; [7]): 93 ± 5.1%
IC50 (ACK1 [2]; [12]): 85 nM

Cl.O=C(Nc1c(F)cccc1Cl)c1cnc(Nc2ccc(N3CCC(C(=O)O)CC3)cc2)nc1NCC1CCCO1 (centres unmarked) [DZ1-096]
% Inhibition at 10 μM (ELISA) (ACK1 [1]; [8]): 98, 98%
inhibition at 10 µM (ACK1 [1]; [10]): 98%
IC50 (ACK1 [2]; [11]): 36.3 nM and 32.2 nM
IC50 (ACK1 [2]; [13]): 32.2 nM

CCOC(=O)C1CCN(c2ccc(Nc3ncc(Cl)c(NCC4CCCO4)n3)cc2)CC1.Cl (centres unmarked) [YL8-047, Ethyl 1-(4-(5-chloro-4-((tetrahydrofuran-2-yl)methylamino)pyrimidin-2-ylamino)phenyl)piperidine-4-carboxylate hydrochloride]
% Inhibition at 10 μM (ELISA) (ACK1 [1]; 10 μM, Table 1, replicate values listed, hydrochloride): 67% and 69%
inhibition at 10 µM (ACK1 [1]; [10]): 65%
IC50 (ACK1 [2]; [9]): 108 nM

Cl.O=C(Nc1c(F)cccc1Cl)c1cnc(Nc2ccc(C3CCNCC3)cc2)nc1NCC1CCCO1 (centres unmarked) [DZ1-089, N-(2-chloro-6-fluorophenyl)-2-(4-(piperidin-4-yl)phenylamino)-4-((tetrahydrofuran-2-yl)methylamino)pyrimidine-5-carboxamide]
% Inhibition at 10 μM (ELISA) (ACK1 [1]; [8]): 97, 97%
IC50 (ACK1 [2]; [11]): 53.3 nM

CC(O)(CS(=O)(=O)c1ccc(F)cc1)C(=O)Nc1ccc(C#N)c(C(F)(F)F)c1 (centres unmarked) [Casodex]
AR mRNA levels (AR [3]): no significant change
PSA mRNA levels (PSA): significantly suppressed PSA mRNA levels

CN1CCN(c2ccc(Nc3ncc(C(=O)Nc4c(F)cccc4Cl)c(NCC4CCCO4)n3)cc2)CC1 (centres unmarked) [DZ1-114, N-(2-chloro-6-fluorophenyl)-2-(4-(4-methylpiperazin-1-yl)phenylamino)-4-((tetrahydrofuran-2-yl)methylamino)pyrimidine-5-carboxamide]
% Inhibition at 10 μM (ELISA) (ACK1 [1]; [8]): 95%
inhibition at 10 µM (ACK1 [1]; [10]): 99%
IC50 (ACK1 [2]; [14]): 48.3 nM

CN1CCN(c2ccc(Nc3ncc(Cl)c(NCC4CCCO4)n3)cc2)CC1 (centres unmarked) [MH1-022-5, 5-chloro-N2-(4-(4-methylpiperazin-1-yl)phenyl)-N4-((tetrahydrofuran-2-yl)methyl)pyrimidine-2,4-diamine]
% Inhibition at 10 μM (ELISA) (ACK1 [1]; [8]): 91%
inhibition at 10 µM (ACK1 [1]; [10]): 90%
IC50 (ACK1 [2]; [13]): 54.4 nM

O=C(O)C1CCN(c2ccc(Nc3ncc(Cl)c(NC[C@H]4CCCO4)n3)cc2)CC1 [DZ1-072, (R)-1-(4-(5-chloro-4-((tetrahydrofuran-2-yl)methylamino)pyrimidin-2-ylamino)phenyl)piperidine-4-carboxylic acid]
% Inhibition at 10 μM (ELISA) (ACK1 [1]; [8]): 95%
inhibition at 10 µM (ACK1 [1]; [10]): 96%
IC50 (ACK1 [2]; [11]): 91.6 nM

Oc1ccc(Nc2ncc(Cl)c(NCC3CCCO3)n2)cc1 (centres unmarked) [DZ1-120, 4-(5-chloro-4-((tetrahydrofuran-2-yl)methylamino)pyrimidin-2-ylamino)phenol]
% Inhibition at 10 μM (ELISA) (ACK1 [1]; [8]): 58%
inhibition at 10 µM (ACK1 [1]; [10]): 73%
IC50 (ACK1 [2]; [11]): 163 nM
IC50 (ACK1 [2]; [14]): 163 nM

Clc1cnc(Nc2ccc(N3CCNCC3)cc2)nc1NCC1CCCO1 (centres unmarked) [Compound 9a]
% Inhibition @ 10 μM (ELISA) (ACK1 [1]; 10 μM, Table 2, library 9): 82 ± 12.7%
IC50 (ACK1 [2]; [12]): 81 nM

O=C(Nc1c(F)cccc1Cl)c1cnc(Nc2ccc(N3CCNCC3)cc2)nc1NCC1CCCO1 (centres unmarked) [YL9-162, N-(2-chloro-6-fluorophenyl)-2-(4-(piperazin-1-yl)phenylamino)-4-((tetrahydrofuran-2-yl)methylamino)pyrimidine-5-carboxamide TFA salt]
% Inhibition at 10 μM (ELISA) (ACK1 [1]; 10 μM, Table 1, replicate values listed, TFA salt): 88%
inhibition at 10 µM (ACK1 [1]; read-out: % Inhibition at 10 μM (ELISA), 10 μM, Table 1, replicate values listed): 91%
IC50 (ACK1 [2]; [11]): 33.2 nM
